Series [1] can be described thus: Compound cytotoxicity, XTT-based colorimetric assay. In kind it is cell-based. To be noted: human; uninfected MT2 cells, day 4, XTT. The procedure, abridged:
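Run under the antiviral-assay protocol but without virus. Viability was read on day 4 and CC50 values were derived from the readout.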
(Formazan colour is commonly taken as a measure of viable cells.)

In series [2] the test system is recombinant NL4-3 virus (Renilla luciferase) in MT-2 cells. Kind of series: HIV cell culture assay (antiviral activity, luciferase readout). In kind it is cell-based. To be noted: Renilla, NL43. A digest of the protocol:
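MT-2 cells were infected with recombinant NL4-3 virus carrying Renilla luciferase in place of part of nef. Cells were cultured 4–5 days with serially diluted compound, and luciferase was measured with a live-cell substrate. EC50 was calculated from the median effect equation.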

`Cc1cc(C(F)(F)F)nc(-c2ccc3c(=O)n(-c4ccc(Cl)c5c(NS(C)(=O)=O)nn(C)c45)c([C@H](Cc4cc(F)cc(F)c4)NC(=O)Cn4nc(C(F)F)c5c4C(F)(F)[C@@H]4C[C@H]54)nc3c2)n1` [Example 53, N—((S)-1-((3P)-3-(4-chloro-1-methyl-3-(methylsulfonamido)-1H-indazol-7-yl)-7-(4-methyl-6-(trifluoromethyl)pyrimidin-2-yl)-4-oxo-3,4-dihydroquinazolin-2-yl)-2-(3,5-difluorophenyl)ethyl)-2-((3bS,4aR)-3-(difluoromethyl)-5,5-difluoro-3b,4,4a,5-tetrahydro-1H-cyclopropa[3,4]cyclopenta[1,2-c]pyrazol-1-yl)acetamide] came in with a half-maximal cytotoxic concentration (CC50) at 4 days in series [1] above 500 nM. Moreover, the EC50 in series [2] was 0.16 nM.
In series [1], `COCc1nccc(-c2ccc3c(=O)n(-c4ccc(Cl)c5c(NS(C)(=O)=O)nn(C)c45)c([C@H](Cc4cc(F)cc(F)c4)NC(=O)Cn4nc(C(F)F)c5c4C(F)(F)[C@@H]4C[C@H]54)nc3c2)n1` (atropisomer, axis not shown; (P)) [Example 74, N—((S)-1-((3P)-3-(4-chloro-1-methyl-3-(methylsulfonamido)-1H-indazol-7-yl)-7-(2-(methoxymethyl)pyrimidin-4-yl)-4-oxo-3,4-dihydroquinazolin-2-yl)-2-(3,5-difluorophenyl)ethyl)-2-((3bS,4aR)-3-(difluoromethyl)-5,5-difluoro-3b,4,4a,5-tetrahydro-1H-cyclopropa[3,4]cyclopenta[1,2-c]pyrazol-1-yl)acetamide] yielded a half-maximal cytotoxic concentration (CC50) at 4 days above 500 nM. Moreover, in series [2], the EC50 was 0.079 nM.
In the case of `Cn1nc(NS(C)(=O)=O)c2c(Cl)ccc(-n3c([C@H](Cc4cc(F)cc(F)c4)NC(=O)Cn4nc(C(F)F)c5c4C(F)(F)[C@@H]4C[C@H]54)nc4cc(-c5nccc(C(F)(F)F)n5)ccc4c3=O)c21` (atropisomer, axis not shown; (P)) [Example 3, N—((S)-1-((3P)-3-(4-chloro-1-methyl-3-(methylsulfonamido)-1H-indazol-7-yl)-4-oxo-7-(4-(trifluoromethyl)pyrimidin-2-yl)-3,4-dihydroquinazolin-2-yl)-2-(3,5-difluorophenyl)ethyl)-2-((3bS,4aR)-3-(difluoromethyl)-5,5-difluoro-3b,4,4a,5-tetrahydro-1H-cyclopropa[3,4]cyclopenta[1,2-c]pyrazol-1-yl)acetamide], the cytotoxic concentration (CC50) at 4 days in series [1] was above 500 nM. The EC50 in series [2] was 0.1 nM.
`COc1ncc(-c2ccc3c(=O)n(-c4ccc(Cl)c5c(NS(C)(=O)=O)nn(CC(F)F)c45)c([C@H](Cc4cc(F)cc(F)c4)NC(=O)Cn4nc(C(F)F)c5c4C(F)(F)[C@@H]4C[C@H]54)nc3c2)cn1` (atropisomer, axis not shown) [Example 125, N-[(1S)-1-{3-[4-chloro-1-(2,2-difluoroethyl)-3-methanesulfonamido-1H-indazol-7-yl]-7-(2-methoxypyrimidin-5-yl)-4-oxo-3,4-dihydroquinazolin-2-yl}-2-(3,5-difluorophenyl)ethyl]-2-[(2S,4R)-9-(difluoromethyl)-5,5-difluoro-7,8-diazatricyclo[4.3.0.0^2,^4]nona-1(6),8-dien-7-yl]acetamide]: the cytotoxic concentration (CC50) at 4 days in series [1] was above 500 nM. Besides, in series [2], the concentration giving a half-maximal response (EC50) was determined as 0.06 nM.
For `Cc1nc(-c2ccc3c(=O)n(-c4ccc(Cl)c5c(NS(C)(=O)=O)nn(C)c45)c([C@H](Cc4cc(F)cc(F)c4)NC(=O)Cn4nc(C(F)F)c5c4C(F)(F)[C@@H]4C[C@H]54)nc3c2)cc(C(C)C)n1` (atropisomer, axis not shown; (P)) [Example 66, N—((S)-1-((3P)-3-(4-chloro-1-methyl-3-(methylsulfonamido)-1H-indazol-7-yl)-7-(6-isopropyl-2-methylpyrimidin-4-yl)-4-oxo-3,4-dihydroquinazolin-2-yl)-2-(3,5-difluorophenyl)ethyl)-2-((3bS,4aR)-3-(difluoromethyl)-5,5-difluoro-3b,4,4a,5-tetrahydro-1H-cyclopropa[3,4]cyclopenta[1,2-c]pyrazol-1-yl)acetamide], the cytotoxic concentration (CC50) at 4 days in series [1] was above 500 nM. Also, in series [2], the concentration for a half-maximal effect (EC50) was found to be 0.15 nM.
In series [1], `Cc1cc(-c2ccc3c(=O)n(-c4ccc(Cl)c5c(NS(C)(=O)=O)nn(C)c45)c([C@H](Cc4cc(F)cc(F)c4)NC(=O)Cn4nc(C(F)F)c5c4C(F)(F)[C@@H]4C[C@H]54)nc3c2)nc(CO)n1` (atropisomer, axis not shown) [Example 118, N-[(1S)-1-[3-(4-chloro-3-methanesulfonamido-1-methyl-1H-indazol-7-yl)-7-[2-(hydroxymethyl)-6-methylpyrimidin-4-yl]-4-oxo-3,4-dihydroquinazolin-2-yl]-2-(3,5-difluorophenyl)ethyl]-2-[(2S,4R)-9-(difluoromethyl)-5,5-difluoro-7,8-diazatricyclo[4.3.0.0^2,^4]nona-1(6),8-dien-7-y]acetamide] registered a half-maximal cytotoxic concentration (CC50) at 4 days above 500 nM. In series [2], the EC50 worked out at 0.048 nM.
In turn, `O=C(Cn1nc(C(F)F)c2c1C(F)(F)[C@@H]1C[C@H]21)N[C@@H](Cc1cc(F)cc(F)c1)c1nc2cc(-c3nccc(C(F)F)n3)ccc2c(=O)n1-c1ccc(Cl)c2c(NS(=O)(=O)C3CC3)nn(CC(F)F)c12` (atropisomer, axis not shown; (P)) [Example 86, N—((S)-1-((3P)-3-(4-chloro-3-(cyclopropanesulfonamido)-1-(2,2-difluoroethyl)-1H-indazol-7-yl)-7-(4-(difluoromethyl)pyrimidin-2-yl)-4-oxo-3,4-dihydroquinazolin-2-yl)-2-(3,5-difluorophenyl)ethyl)-2-((3bS,4aR)-3-(difluoromethyl)-5,5-difluoro-3b,4,4a,5-tetrahydro-1H-cyclopropa[3,4]cyclopenta[1,2-c]pyrazol-1-yl)acetamide] returned a CC50 at 4 days in series [1] above 500 nM. The EC50 in series [2] is 0.078 nM.
`Cc1ncc(-c2ccc3c(=O)n(-c4ccc(Cl)c5c(NS(C)(=O)=O)nn(CC(F)(F)F)c45)c([C@H](Cc4cc(F)cc(F)c4)NC(=O)Cn4nc(C(F)F)c5c4C(F)(F)[C@@H]4C[C@H]54)nc3c2)s1` (atropisomer, axis not shown) [Example 114] yielded a CC50 at 4 days in series [1] above 500 nM. Besides, the EC50 in series [2] worked out at 0.15 nM.
Molecule `Cc1cc(-c2ccc3c(=O)n(-c4ccc(Cl)c5c(NS(C)(=O)=O)nn(CC(F)F)c45)c([C@H](Cc4cc(F)cc(F)c4)NC(=O)Cn4nc(C(F)F)c5c4C(F)(F)[C@@H]4C[C@H]54)nc3c2)nc(C)n1` (atropisomer, axis not shown) [Example 131, N-[(1S)-1-{3-[4-chloro-1-(2,2-difluoroethyl)-3-methanesulfonamido-1H-indazol-7-yl]-7-(2,6-dimethylpyrimidin-4-y1)-4-oxo-3,4-dihydroquinazolin-2-y1}-2-(3,5-difluorophenyl)ethyl]-2-[(2S,4R)-9-(difluoromethyl)-5,5-difluoro-7,8-diazatricyclo[4.3.0.0^2,^4]nona-1(6),8-dien-7-yl]acetamide] came in with a cytotoxic concentration (CC50) at 4 days in series [1] above 500 nM. In addition, the EC50 in series [2] was determined as 0.038 nM.
The corresponding values for `CN(c1cccc(-c2ccc3c(=O)n(-c4ccc(Cl)c5c(NS(C)(=O)=O)nn(C)c45)c([C@H](Cc4cc(F)cc(F)c4)NC(=O)Cn4nc(C(F)F)c5c4C(F)(F)[C@@H]4C[C@H]54)nc3c2)c1)S(C)(=O)=O` [Example 28, N—((S)-1-((3P)-3-(4-chloro-1-methyl-3-(methylsulfonamido)-1H-indazol-7-yl)-7-(3-(N-methylmethylsulfonamido)phenyl)-4-oxo-3,4-dihydroquinazolin-2-yl)-2-(3,5-difluorophenyl)ethyl)-2-((3bS,4aR)-3-(difluoromethyl)-5,5-difluoro-3b,4,4a,5-tetrahydro-1H-cyclopropa[3,4]cyclopenta[1,2-c]pyrazol-1-yl)acetamide] are above 500 nM and 0.22 nM.
`Cc1ccc(F)c(-c2ccc3c(=O)n(-c4ccc(Cl)c5c(NS(C)(=O)=O)nn(CC(F)(F)F)c45)c([C@H](Cc4cc(F)cc(F)c4)NC(=O)Cn4nc(C(F)F)c5c4C(F)(F)[C@@H]4C[C@H]54)nc3c2)n1` (atropisomer, axis not shown) [Example 113] registered a CC50 at 4 days in series [1] above 500 nM. Further, the EC50 in series [2] was found to be 0.1 nM.
As for `Cc1nccc(-c2ccc3c(=O)n(-c4ccc(Cl)c5c(NS(=O)(=O)C6CC6)nn(CC(F)F)c45)c([C@H](Cc4cc(F)cc(F)c4)NC(=O)Cn4nc(C(F)F)c5c4C(F)(F)[C@@H]4C[C@H]54)nc3c2)n1` (atropisomer, axis not shown; (P)) [Example 81, N—((S)-1-((3P)-3-(4-chloro-3-(cyclopropanesulfonamido)-1-(2,2-difluoroethyl)-1H-indazol-7-yl)-7-(2-methylpyrimidin-4-yl)-4-oxo-3,4-dihydroquinazolin-2-yl)-2-(3,5-difluorophenyl)ethyl)-2-((3bS,4aR)-3-(difluoromethyl)-5,5-difluoro-3b,4,4a,5-tetrahydro-1H-cyclopropa[3,4]cyclopenta[1,2-c]pyrazol-1-yl)acetamide], in series [1], the CC50 at 4 days was above 500 nM. The concentration for a half-maximal effect (EC50) in series [2] is 0.092 nM.
For the molecule `Cc1ncc(F)c(-c2ccc3c(=O)n(-c4ccc(C)c5c(NS(C)(=O)=O)nn(C)c45)c([C@H](Cc4cc(F)cc(F)c4)NC(=O)Cn4nc(C(F)F)c5c4C(F)(F)[C@@H]4C[C@H]54)nc3c2)n1` (atropisomer, axis not shown) [Example 140, 2-[(2S,4R)-9-(difluoromethyl)-5,5-difluoro-7,8-diazatricyclo[4.3.0.0^2,^4]nona-1(6),8-dien-7-yl]-N-[(1S)-2-(3,5-difluorophenyl)-1-[7-(5-fluoro-2-methylpyrimidin-4-yl)-3-(3-methanesulfonamido-1,4-dimethyl-1H-indazol-7-yl)-4-oxo-3,4-dihydroquinazolin-2-yl]ethyl]acetamide], the half-maximal cytotoxic concentration (CC50) at 4 days in series [1] was above 500 nM. For the same molecule, the concentration for a half-maximal effect (EC50) in series [2] was determined as 0.097 nM.

In general, CC50 refers to the concentration giving 50% cytotoxicity. Lower therefore signals greater toxicity to the cells. The EC50 is the concentration needed to bring the measured effect to its halfway point.

The values are drawn from patent US11541055B2, “Inhibitors of human immunodeficiency virus replication” (ViiV Healthcare UK (No. 5) LIMITED, priority 2018, dated 2023).
